The values that follow come from US12403135B2, “4H-pyrrolo[3,2-c]pyridin-4-one derivatives” (Bayer Aktiengesellschaft, priority 2019, dated 2025).

Holding throughout (type): cell-based
Experiment [1] deals with HCC-827 cells (EGFRex19del). The experiment can be described thus: HCC-827 cell proliferation, Cell Titer Glo, 72 h. To be noted: Homo sapiens. The procedure:
(§1) HCC-827 cells were purchased from ATCC. 400 HCC-829 cells per well were seeded in growth medium (RPMI1640, 10% FCS) in a 384-well plate (CORNING #3571). Seed reference plate for time zero determination on the same day. All plates were incubated overnight at 37° C. After 24 hours, test compound were added in 7-step dilution using HP Compound printer and incubated at 37° C. for 72 h. After 3 days, 30 μL/well CTG solution (Promega Cell Titer Glo solution; catalog #G755B and G756B) were added to each well, incubated for 30 minutes and the plate were read on PheraStar. Proliferation is calculated after subtracting time zero luminescence values from day 4 values and comparing to untreated wells.
The IC50 values were determined using the four parameter fit.
(In general: ATP-based viability assays read luminescence as a measure of living cells.)

Experiment [2] deals with Ba/F3-EGFR-D770_N771 insSVD C797S cells. The experiment can be described thus: BA/F3 (EGFR D770_N771 insSVD C797S) proliferation, acquired resistance. The settings on record: Ba/F3 EGFR-D770-N771ins_SVD; Table 11; acquired resistance space. The protocol:
(§2) Plates were incubated at 37° C. for 48 h. Retrovirus was harvested by filtering the media supernatant through a 0.45 μm filter.
(§3) Ba/F3 cells purchased from DSMZ were grown in RPMI+10% FBS+10 ng/mL IL-3 and infected with filtered retroviral supernatant at a 1:2 dilution. Polybrene was added to a concentration of 8 μg/mL, plates were spun for 90 min, and incubated overnight at 37° C. 2 μg/mL puromycin was added to the infected cells 24 h after infection and cells were continually grown in the presence of puromycin and 10 ng/mL IL-3. Following stably expressing Ba/F3 cell lines were generated: Ba/F3-EGFR-V769_D770 insASV, Ba/F3-EGFR-D770_N771 insNPG, Ba/F3-EGFR-N771_P772 insH, Ba/F3-EGFR-H773_V774 insNPH, Ba/F3-EGFR-D770_N771 insSVD C797S, Ba/F3-EGFR-E746_A750del C797S, Ba/F3-EGFR-L858R C797S, Ba/F3-EGFR L861Q and Ba/F3-ERBB2-A775_G776insYVMA (Ba/F3-vector-control).

For experiment [3], the system named is Ba/F3-EGFR-delLREA cells (EGFR del19/delLREA (746-750), E746_A750del). The experiment can be described thus: BA/F3 EGFR del19/delLREA (746-750) (E746_A750del) cell survival assay, Cell Titer-Glo. To be noted: Table 10, classical activating and uncommon EGFR mutations, read-out: BA/F3 (EGFR E746_A750del) IC50. The procedure:
as §2
(§4) Ba/F3 cells purchased from DSMZ were grown in RPMI+10% FBS+10 ng/mL IL-3 and infected with filtered retroviral supernatant at a 1:2 dilution. Polybrene was added to a concentration of 8 μg/mL, plates were spun for 90 min, and incubated overnight at 37° C. 2 μg/mL puromycin was added to the infected cells 24 h after infection and cells were continually grown in the presence of puromycin and 10 ng/mL IL-3. Following stably expressing Ba/F3 cell lines were generated: Ba/F3-EGFR-L858R, Ba/F3-EGFR-delLREA, (Ba/F3-vector-control).
(§5) For cell survival assays, Ba/F3 cells were grown to a density of 1-2 million cells per mL, spun down and resuspended in media without IL-3, and replated at a concentration 200,000-500,000 cells per mL. The cells ectopically expressing pBABEpuro empty vector were plated with 10 ng/mL IL-3.
(§6) 2 days later, cells were plated in 50 μL in a 384 well plate at a concentration of 4000 cells per well for cells assayed in the absence of IL-3 and 2000 cells per well for cells (pBABE puro empty vector) assayed in the presence of IL-3. 100 nL of compound was added to each well using a 100 nL pin head, and plates were incubated at 37° C. for 48 h.
(§7) Cell viability was measured by adding 20 μL of Cell Titer-Glo Luminescent Cell Viability Reagent diluted 1:3 in PBS. Plates were sealed with Perkin Elmer Top-Seal, inverted several times to mix, and immediately centrifuged at 1000 rpm for 2 min. Plates were incubated in low light conditions for 8-10 min and luminescence was measured.

The target in experiment [4] is Ba/F3-ERBB2-A775_G776insYVMA cells (Homo sapiens, UniProt P04626, DUP772-775, cells depend on it). Kind of experiment: BA/F3 (ERBB2 A775_G776 insYVMA) proliferation. To be noted: Table 12; read-out: BA/F3 (ERBB2 A775_G776 insYVMA) IC50. The protocol: as §2, §3
Sequence of Ba/F3-ERBB2-A775_G776insYVMA cells (P04626 with tags, fused parts or gaps DUP772-775): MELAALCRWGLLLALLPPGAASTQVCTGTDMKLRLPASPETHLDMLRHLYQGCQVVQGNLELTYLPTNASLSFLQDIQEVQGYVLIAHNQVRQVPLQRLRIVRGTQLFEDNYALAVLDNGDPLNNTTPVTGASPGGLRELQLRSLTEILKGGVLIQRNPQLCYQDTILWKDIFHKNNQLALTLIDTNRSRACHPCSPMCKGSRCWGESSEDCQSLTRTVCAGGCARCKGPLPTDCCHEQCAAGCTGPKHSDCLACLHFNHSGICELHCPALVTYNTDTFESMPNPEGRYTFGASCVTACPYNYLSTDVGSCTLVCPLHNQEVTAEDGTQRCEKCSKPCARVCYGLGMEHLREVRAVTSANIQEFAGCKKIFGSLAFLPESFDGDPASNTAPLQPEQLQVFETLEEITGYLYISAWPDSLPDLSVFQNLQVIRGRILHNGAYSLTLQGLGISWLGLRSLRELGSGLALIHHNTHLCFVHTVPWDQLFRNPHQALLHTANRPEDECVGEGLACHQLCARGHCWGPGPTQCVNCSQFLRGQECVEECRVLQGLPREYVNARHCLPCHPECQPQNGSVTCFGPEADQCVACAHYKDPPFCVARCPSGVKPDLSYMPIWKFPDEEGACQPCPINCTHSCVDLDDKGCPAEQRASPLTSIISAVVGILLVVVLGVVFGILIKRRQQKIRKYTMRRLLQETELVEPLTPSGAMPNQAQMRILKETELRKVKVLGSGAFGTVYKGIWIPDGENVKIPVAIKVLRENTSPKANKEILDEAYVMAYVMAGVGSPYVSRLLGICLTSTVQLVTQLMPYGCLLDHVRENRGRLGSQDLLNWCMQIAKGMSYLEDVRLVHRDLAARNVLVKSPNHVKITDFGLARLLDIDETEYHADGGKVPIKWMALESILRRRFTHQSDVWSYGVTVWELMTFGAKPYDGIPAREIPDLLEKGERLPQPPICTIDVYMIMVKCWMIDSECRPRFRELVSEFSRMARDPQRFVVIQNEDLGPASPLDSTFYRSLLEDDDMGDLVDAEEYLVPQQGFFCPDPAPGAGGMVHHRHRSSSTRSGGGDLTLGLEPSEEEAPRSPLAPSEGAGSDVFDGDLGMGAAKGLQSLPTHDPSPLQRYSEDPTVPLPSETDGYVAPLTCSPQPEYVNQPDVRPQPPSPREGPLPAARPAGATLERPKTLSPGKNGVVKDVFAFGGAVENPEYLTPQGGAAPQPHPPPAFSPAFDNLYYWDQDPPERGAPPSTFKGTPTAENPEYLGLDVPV
The subject of experiment [5] is Ba/F3-EGFR-L858R C797S cells. The experiment can be described thus: BA/F3 (EGFR L858R C797S) proliferation, acquired resistance. The settings on record: Table 11, acquired resistance space. The protocol:
as §2, §3

The target in experiment [6] is Ba/F3-EGFR-V769_D770 insASV cells (Homo sapiens, UniProt P00533, DUP767-769, cells depend on it). The experiment can be described thus: BA/F3 (ASV) proliferation, EGFR Exon20 insertion mutation. To be noted: Table 9; EGFR Exon20 insertion mutations; read-out: BA/F3 (ASV) IC50. The protocol: as §2, §3
Sequence of Ba/F3-EGFR-V769_D770 insASV cells (P00533 with tags, fused parts or gaps DUP767-769): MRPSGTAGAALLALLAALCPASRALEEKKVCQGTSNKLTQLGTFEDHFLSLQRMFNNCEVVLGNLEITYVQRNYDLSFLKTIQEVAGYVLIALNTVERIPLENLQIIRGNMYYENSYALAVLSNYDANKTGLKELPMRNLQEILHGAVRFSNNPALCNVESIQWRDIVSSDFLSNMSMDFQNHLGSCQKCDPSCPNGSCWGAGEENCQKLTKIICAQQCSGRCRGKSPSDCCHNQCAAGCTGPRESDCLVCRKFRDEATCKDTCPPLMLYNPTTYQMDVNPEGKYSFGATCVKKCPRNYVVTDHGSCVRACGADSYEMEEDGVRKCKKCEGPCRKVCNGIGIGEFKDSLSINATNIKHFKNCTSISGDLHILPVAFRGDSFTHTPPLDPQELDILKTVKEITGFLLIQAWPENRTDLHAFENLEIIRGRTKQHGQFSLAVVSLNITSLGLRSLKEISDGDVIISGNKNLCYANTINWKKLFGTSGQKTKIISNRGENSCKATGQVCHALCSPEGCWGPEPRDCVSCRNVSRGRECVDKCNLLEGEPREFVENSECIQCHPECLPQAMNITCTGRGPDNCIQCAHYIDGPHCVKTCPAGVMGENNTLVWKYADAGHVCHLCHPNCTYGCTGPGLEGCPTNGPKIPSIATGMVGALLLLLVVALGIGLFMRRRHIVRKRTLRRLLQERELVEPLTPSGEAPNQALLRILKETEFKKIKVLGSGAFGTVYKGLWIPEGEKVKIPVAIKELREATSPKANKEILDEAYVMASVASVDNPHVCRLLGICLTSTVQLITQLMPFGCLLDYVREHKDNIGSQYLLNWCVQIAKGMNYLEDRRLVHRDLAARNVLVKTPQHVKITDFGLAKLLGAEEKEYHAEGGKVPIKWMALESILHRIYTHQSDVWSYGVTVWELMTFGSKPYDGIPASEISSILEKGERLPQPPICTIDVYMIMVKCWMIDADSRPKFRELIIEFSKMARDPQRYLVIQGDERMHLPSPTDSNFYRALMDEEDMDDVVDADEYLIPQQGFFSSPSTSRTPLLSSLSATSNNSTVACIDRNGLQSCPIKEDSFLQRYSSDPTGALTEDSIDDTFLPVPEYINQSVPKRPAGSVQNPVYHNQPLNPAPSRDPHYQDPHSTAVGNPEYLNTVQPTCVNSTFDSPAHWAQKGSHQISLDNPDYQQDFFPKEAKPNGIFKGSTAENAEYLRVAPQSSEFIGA
The target in the next experiment is Ba/F3-EGFR-L858R cells (Homo sapiens, UniProt P00533, L858R, cells depend on it). The experiment can be described thus: BA/F3 EGFR L858R cell survival assay, Cell Titer-Glo. The settings on record: Table 10; classical activating and uncommon EGFR mutations; read-out: BA/F3 (EGFR L858R) IC50. The protocol: as §2, §4, §5, §6, §7
Sequence of Ba/F3-EGFR-L858R cells (P00533 whole entry L858R): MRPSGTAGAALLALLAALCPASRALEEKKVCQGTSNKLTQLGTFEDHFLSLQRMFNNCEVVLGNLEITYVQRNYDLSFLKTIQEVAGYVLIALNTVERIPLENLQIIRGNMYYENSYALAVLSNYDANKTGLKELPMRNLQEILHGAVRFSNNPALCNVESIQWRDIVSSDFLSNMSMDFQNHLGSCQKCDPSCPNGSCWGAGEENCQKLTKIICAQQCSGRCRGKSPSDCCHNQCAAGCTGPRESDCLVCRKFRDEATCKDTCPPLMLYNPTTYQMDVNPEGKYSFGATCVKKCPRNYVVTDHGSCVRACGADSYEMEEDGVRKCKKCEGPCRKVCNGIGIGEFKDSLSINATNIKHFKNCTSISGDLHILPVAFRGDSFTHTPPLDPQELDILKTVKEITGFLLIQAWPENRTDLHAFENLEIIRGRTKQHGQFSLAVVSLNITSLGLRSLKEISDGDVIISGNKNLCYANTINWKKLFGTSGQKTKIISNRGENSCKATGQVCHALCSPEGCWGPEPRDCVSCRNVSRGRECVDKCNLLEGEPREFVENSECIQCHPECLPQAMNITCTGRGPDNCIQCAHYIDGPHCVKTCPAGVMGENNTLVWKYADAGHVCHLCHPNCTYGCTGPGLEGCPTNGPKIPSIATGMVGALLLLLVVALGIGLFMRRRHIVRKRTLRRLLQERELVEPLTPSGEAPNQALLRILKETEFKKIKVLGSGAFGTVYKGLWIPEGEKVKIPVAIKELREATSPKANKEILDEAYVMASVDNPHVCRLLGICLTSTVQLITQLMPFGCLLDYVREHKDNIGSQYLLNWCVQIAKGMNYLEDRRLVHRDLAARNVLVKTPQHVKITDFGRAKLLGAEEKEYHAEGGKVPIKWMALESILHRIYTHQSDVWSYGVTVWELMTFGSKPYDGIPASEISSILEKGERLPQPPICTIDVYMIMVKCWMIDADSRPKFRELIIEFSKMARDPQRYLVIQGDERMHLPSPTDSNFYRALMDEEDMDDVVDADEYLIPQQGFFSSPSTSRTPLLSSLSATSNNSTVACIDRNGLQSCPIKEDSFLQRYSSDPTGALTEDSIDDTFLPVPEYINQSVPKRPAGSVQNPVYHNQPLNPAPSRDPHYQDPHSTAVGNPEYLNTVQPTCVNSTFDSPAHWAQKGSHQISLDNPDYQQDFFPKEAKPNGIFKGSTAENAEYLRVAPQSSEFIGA
For a further experiment, the system named is PC9 cells (EGFRex19del). The experiment can be described thus: PC9 cell proliferation, Cell Titer Glo, 72 h. The protocol:
as §1, with “PC9” for “HCC-827”, “PC9” for “HCC-829”, “(DMEM,” for “(RPMI1640,”, “wells. The IC50 values were determined using the four parameter fit.” for “wells.”

Experiment [7] relates to Ba/F3-EGFR-E746_A750del C797S cells. Kind of experiment: BA/F3 (EGFR E746_A750del C797S) proliferation, acquired resistance. The settings on record: Table 11, acquired resistance space. The protocol:
as §2, §3

Another experiment deals with Ba/F3-EGFR L861Q cells. Kind of experiment: BA/F3 (EGFR L861Q) proliferation, uncommon EGFR mutation. The settings on record: Table 10, classical activating and uncommon EGFR mutations. The protocol: as §2, §3
Experiment [8] deals with Ba/F3-EGFR-D770_N771 insNPG cells (Homo sapiens, UniProt P00533, INS772GNP, cells depend on it). The experiment can be described thus: BA/F3 (insNPG) proliferation, EGFR Exon20 insertion mutation. The settings on record: Table 9; EGFR Exon20 insertion mutations; read-out: BA/F3 (insNPG) IC50. The protocol: as §2, §3
Sequence of Ba/F3-EGFR-D770_N771 insNPG cells (P00533 with tags, fused parts or gaps INS772GNP): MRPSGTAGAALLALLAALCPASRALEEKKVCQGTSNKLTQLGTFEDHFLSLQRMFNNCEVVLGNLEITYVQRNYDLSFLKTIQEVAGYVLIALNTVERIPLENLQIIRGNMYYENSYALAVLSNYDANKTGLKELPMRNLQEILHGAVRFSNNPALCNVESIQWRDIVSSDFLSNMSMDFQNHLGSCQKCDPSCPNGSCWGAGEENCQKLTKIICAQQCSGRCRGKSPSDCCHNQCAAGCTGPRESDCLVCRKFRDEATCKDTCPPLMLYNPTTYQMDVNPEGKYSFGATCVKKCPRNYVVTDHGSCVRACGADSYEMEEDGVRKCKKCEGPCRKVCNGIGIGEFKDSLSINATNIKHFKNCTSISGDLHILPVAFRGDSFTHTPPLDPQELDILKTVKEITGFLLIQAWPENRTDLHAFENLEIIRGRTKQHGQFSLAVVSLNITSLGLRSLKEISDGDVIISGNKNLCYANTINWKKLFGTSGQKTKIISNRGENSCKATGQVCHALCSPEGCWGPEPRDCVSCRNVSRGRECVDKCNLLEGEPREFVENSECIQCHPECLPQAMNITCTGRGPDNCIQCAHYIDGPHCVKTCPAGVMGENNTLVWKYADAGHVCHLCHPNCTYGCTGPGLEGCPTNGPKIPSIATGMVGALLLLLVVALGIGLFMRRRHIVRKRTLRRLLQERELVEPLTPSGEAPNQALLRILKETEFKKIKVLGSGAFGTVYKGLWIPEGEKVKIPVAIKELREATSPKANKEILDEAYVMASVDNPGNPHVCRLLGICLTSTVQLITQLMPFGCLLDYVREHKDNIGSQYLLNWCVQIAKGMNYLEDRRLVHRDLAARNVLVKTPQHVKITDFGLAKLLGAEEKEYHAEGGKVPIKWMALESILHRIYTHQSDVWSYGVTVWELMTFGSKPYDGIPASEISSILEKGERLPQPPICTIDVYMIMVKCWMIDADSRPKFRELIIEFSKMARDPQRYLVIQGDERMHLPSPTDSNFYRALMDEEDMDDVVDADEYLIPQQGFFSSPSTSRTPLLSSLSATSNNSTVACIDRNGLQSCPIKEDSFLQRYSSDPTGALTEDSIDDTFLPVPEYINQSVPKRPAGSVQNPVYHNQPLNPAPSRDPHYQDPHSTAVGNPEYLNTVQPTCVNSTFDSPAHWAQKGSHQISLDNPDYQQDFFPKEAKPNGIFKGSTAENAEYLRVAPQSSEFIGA
Where [9] appears, read: HCC827, Table 12, several values per example.
Where [10] appears, read: Homo sapiens, PC-9, Table 12, several values per example.
[11] abbreviates: Homo sapiens, PC-9, 72 h, Table 12, several values per example.
The mark [12] stands for this setting: HCC827, 72 h, Table 12, several values per example.

In the case of `COc1c(Cl)cccc1Nc1c(-c2ccncc2OC[C@@H]2CCCO2)[nH]c2c1C(=O)NCC2` [Example 66, 3-(3-chloro-2-methoxyanilino)-2-(3-{[(2S)-oxolan-2-yl]methoxy}pyridin-4-yl)-1,5,6,7-tetrahydro-4H-pyrrolo[3,2-c]pyridin-4-one], the IC50 is < 3 nM in [1] (setting [9]); 15.3 nM in experiment [2]; < 0.15 nM in [3]; 1.22 nM in experiment [5]; 0.944 nM in the experiment with PC9 cells (EGFRex19del) (setting [10]); 0.288 nM in experiment [7]. This compound also registered an IC50 in the experiment on Ba/F3-EGFR L861Q cells of 9.81 nM. For the same compound, the GI50 in experiment [4] is 6.62 nM; in experiment [6], 6.4 nM; on Ba/F3-EGFR-L858R cells, 0.685 nM; in [8], 5.57 nM.
As to `COc1c(Cl)cccc1Nc1c(-c2ccncc2OCC(C)(C)OC)[nH]c2c1C(=O)NCC2` [Example 33, 3-(3-chloro-2-methoxyanilino)-2-[3-(2-methoxy-2-methylpropoxy)pyridin-4-yl]-1,5,6,7-tetrahydro-4H-pyrrolo[3,2-c]pyridin-4-one], the IC50 came out at 49.4 nM in experiment [2]; 2.96 nM in experiment [3]; 3.34 nM in experiment [5]; 1.42 nM in experiment [7]; 57.3 nM in the experiment on Ba/F3-EGFR L861Q cells. The GI50 in [4] amounted to 41.1 nM; in experiment [6], 30.4 nM; on Ba/F3-EGFR-L858R cells, 3.16 nM; in experiment [8], 26.2 nM.
With `Cc1c(F)cccc1Nc1c(-c2ccncc2OC[C@@H]2CCCN2C)[nH]c2c1C(=O)NCC2` [Example 49, 3-(3-fluoro-2-methylanilino)-2-(3-{[(2S)-1-methylpyrrolidin-2-yl]methoxy}pyridin-4-yl)-1,5,6,7-tetrahydro-4H-pyrrolo[3,2-c]pyridin-4-one], the IC50 in experiment [2] is 198 nM; in [3], 11.6 nM; in experiment [5], 7.83 nM; in the experiment with PC9 cells (EGFRex19del) (setting [11]) it was < 30 nM; with PC9 cells (EGFRex19del) (Table 12, several values per example) it was 51.3 nM; in experiment [7], 3.01 nM. Moreover, the IC50 in the experiment on Ba/F3-EGFR L861Q cells worked out at 177 nM. The GI50 amounted to 231 nM in experiment [4], 284 nM in [6], 22.7 nM at Ba/F3-EGFR-L858R cells and 115 nM in experiment [8].
As for `COc1c(F)cccc1Nc1c(-c2ccncc2OC[C@@H](C)OC)[nH]c2c1C(=O)NCC2` [Example 92, 3-(3-fluoro-2-methoxyanilino)-2-{3-[(2R)-2-methoxypropoxy]pyridin-4-yl}-1,5,6,7-tetrahydro-4H-pyrrolo[3,2-c]pyridin-4-one], the IC50 in experiment [1] (setting [12]) is < 3 nM; in [2] it was 25.6 nM; in [3], 0.375 nM; in [5], 1.61 nM; in the experiment on PC9 cells (EGFRex19del) (setting [11]), 3.27 nM; in experiment [7], 0.363 nM. Also, in the experiment on Ba/F3-EGFR L861Q cells, the IC50 was determined as 38 nM. Also, the GI50 in [4] turned out to be 14.9 nM; in [6], 17.2 nM; on Ba/F3-EGFR-L858R cells, 1.31 nM; in experiment [8] it was 13.9 nM.
`COc1c(Cl)cccc1Nc1c(-c2ccncc2OC[C@@H]2CCCN2C)[nH]c2c1C(=O)NCC2` [Example 48, 3-(3-chloro-2-methoxyanilino)-2-(3-{[(2S)-1-methylpyrrolidin-2-yl]methoxy}pyridin-4-yl)-1,5,6,7-tetrahydro-4H-pyrrolo[3,2-c]pyridin-4-one]: the IC50 in experiment [1] (setting [12]) was < 3 nM; in [2], 17.2 nM; in experiment [3] it was 1.13 nM; in [5], 1.06 nM; in the experiment with PC9 cells (EGFRex19del) (setting [11]), 10 nM; in [7] it was 0.543 nM. In the experiment on Ba/F3-EGFR L861Q cells, this compound returned an IC50 of 21.4 nM. Further, the GI50 in experiment [4] worked out at 21.7 nM; in [6], 15.1 nM; at Ba/F3-EGFR-L858R cells, 1.39 nM; in experiment [8], 10 nM.
For the compound `COc1c(Cl)cccc1Nc1c(-c2ccncc2OC[C@H]2CCCO2)[nH]c2c1C(=O)NCC2` [Example 67, 3-(3-chloro-2-methoxyanilino)-2-(3-{[(2R)-oxolan-2-yl]methoxy}pyridin-4-yl)-1,5,6,7-tetrahydro-4H-pyrrolo[3,2-c]pyridin-4-one], the IC50 in experiment [1] (setting [9]) was < 3 nM; in experiment [2], 23.8 nM; in [3] it was 0.643 nM; in experiment [5] it was 1.82 nM; in the experiment with PC9 cells (EGFRex19del) (setting [10]), 1.77 nM; in [7], 0.387 nM. In the experiment with Ba/F3-EGFR L861Q cells, this compound returned an IC50 of 19 nM. The GI50 in experiment [4] is 11.5 nM; in experiment [6], 12.8 nM; at Ba/F3-EGFR-L858R cells, 1.48 nM; in [8], 13.1 nM.
